Test results published in patent US20190100549A1, “FLAVONOIDE-TYPE COMPOUNDS BEARING AN O-RHAMNOSYL RESIDUE” (Universitaet Hamburg, priority 2016, published 2019).
“And” between values parts separate entries of the source, which are not always exact repeats. Identical values can stand only once.

Legend:
[1] = test system: hydrogen peroxide (DHR) in NHEK cells; test: Protection against UV-induced H2O2 stress in NHEK (DHR probe, flow cytometry); assay type: cell-based, human
Description: (§1) Pre-incubated NHEK were incubated with the test compound for 24 h. Then the specific fluorescence probe for the measurement of hydrogen peroxide (DHR) or lipid peroxides (C11-fluor) was added and incubated for 45 min. Irradiation occurred with in H2O2 determination UVB at 180 mJ/cm^2 (+UVA at 2839 mJ/cm^2) or UVB at 240 mJ/cm^2 (+UVA at 3538 mJ/cm^2) in lipid peroxide, respectively, using a SOL500 Sun Simulator lamp. After irradiation the cells were post-incubated for 30 min before flow-cytometry analysis.

[2] = test system: lipid peroxides (C11-fluor) in NHEK cells; test: Protection against UV-induced lipid peroxide in NHEK (C11-fluor probe, flow cytometry); assay type: cell-based, human; conditions: 100 μM, 240 mJ/cm^2 UVB (3538 mJ/cm^2 UVA)
Description: as §1

procollagen I = test: Procollagen I synthesis in NHDF (ELISA); assay type: cell-based, human; conditions: 100 μM, 72 hours
Description: Tests were performed with normal human dermal fibroblast cultures at the 8th passage. Cells were grown in DMEM supplemented with glutamine at 2 mM, penicillin at 50 U/mL and streptomycin (50 μg/mL) and 10% of fetal calf serum (FCS) at 37° C. in a 5% CO2 atmosphere.
Fibroblasts were cultured for 24 hours before the cells were incubated with the test compounds for further 72 hours. After the incubation the culture supernatants were collected in order to measure the released quantities of procollagen I, VEGF, and fibronectin by means of ELISA. Reference test compounds were vitamin C (procollagen I), PMA (VEGF), and TGF-β (fibronectin).

NF-κB = NF-κB activity in NIH3T3-KBF-Luc cells stimulated with TNFα (luciferase); assay type: cell-based; conditions: for % Activation: TNFα alone = 100
Description: NIH3T3-KBF-Luc cells were stably transfected with the KBF-Luc plasmid (Sancho (2003) Mol Pharmacol 63:429-438), which contains three copies of NF-κB binding site (from major histocompatibility complex promoter), fused to a minimal simian virus 40 promoter driving the luciferase gene. Cells (1×10^4 for NIH3T3-KBF-Luc) were seeded the day before the assay on 96-well plate. Then the cells were treated with the test substances for 15 min and then stimulated with 30 ng/ml of TNFα. After 6 h, the cells were washed twice with PBS and lysed in 50 μl lysis buffer containing 25 mM Tris-phosphate (pH 7.8), 8 mM MgCl2, 1 mM DTT, 1% Triton X-100, and 7% glycerol during 15 min at RT in a horizontal shaker. Luciferase activity was measured using a GloMax 96 microplate luminometer (Promega) following the instructions of the luciferase assay kit (Promega, Madison, Wis., USA). […] The experiments for each concentration of the test items were done in triplicate wells.

STAT3 = STAT3 activity in HeLa-STAT3-luc cells stimulated with IFN-γ (luciferase); assay type: cell-based; conditions: +IFNγ 25 U/ml; for RLU 1 / RLU 2 / RLU 3: HeLa-STAT3-luc cells; for RLU 1: replicate well 1; for RLU 2: replicate well 2; for RLU 3: replicate well 3; for RLU specific: mean minus control; for Mean: mean of triplicate wells; for % Activation: IFNγ alone = 100% activation
Description: HeLa-STAT3-luc cells were stably transfected with the plasmid 4xM67 pTATA TK-Luc. Cells (20×10^3 cells/ml) were seeded 96-well plate the day before the assay. Then the cells were treated with the test substances for 15 min and then stimulated with IFN-γ 25 IU/ml. After 6 h, the cells were washed twice with PBS and lysed in 50 μl lysis buffer containing 25 mM Tris-phosphate (pH 7.8), 8 mM MgCl2, 1 mM DTT, 1% Triton X-100, and 7% glycerol during 15 min at RT in a horizontal shaker. Luciferase activity was measured using GloMax 96 microplate luminometer (Promega) following the instructions of the luciferase assay kit (Promega, Madison, Wis., USA). […] The experiments for each concentration of the test items were done in triplicate wells.

HaCaT cells = test: Glucose uptake (2-NBDG) in HaCaT keratinocytes; assay type: cell-based; parameters: key to Measure 1 / Measure 2 / Measure 3 / Mean: total green object integrated intensity, GCU×μm2×Well; conditions: +2NBDG 50 μM, 24 h; for Measure 1 / Measure 2 / Measure 3: HaCaT cells, fluorescence; for RFU specific: mean minus control; for Mean: mean of triplicate measurements; for % Glucose uptake: Rosiglitazone 80 μM = 100%
Description: HaCaT cells (5×10^4) were seeded in 96-well black plates and incubated for 24 h. Then, medium was removed and the cells cultivated in OptiMEM, labeled with 50 μM 2-NBDG (2-[N-(7-nitrobenz-2-oxa-1,3-diazol-4-yl) amino]-2-deoxy-D-glucose and treated with the test substances or the positive control, Rosiglitazone, for 24 h. Medium was removed and the wells were carefully washed with PBS and incubated in PBS (100l/well). Finally the fluorescence was measured using the Incucyte FLR software, the data were analyzed by the total green object integrated intensity (GCU×μm2×Well) of the imaging system IncuCyte HD (Essen BioScience). The fluorescence of Rosiglitazone is taken as 100% of glucose uptake, and the glucose uptake was calculated as (% Glucose uptake)=100(T−B)/(R−B), where T (treated) is the fluorescence of test substance-treated cells, B (Basal) is the fluorescence of 2-NBDG cells and […] is the fluorescence of cells treated with Rosiglitazone.

[3] = 100 μM, 180 mJ/cm^2 UVB (2839 mJ/cm^2 UVA)

Structure (SMILES): COc1ccc(C2CC(=O)c3c(cc(O)cc3O[C@@H]3O[C@@H](C)[C@H](O)[C@@H](O)[C@H]3O)O2)cc1O (stereo partly drawn) [HESR1, Hesperetin-5-O-α-L-rhamnoside]
- anti-oxidative function on mitochondrially produced hydrogen peroxids species (in words) [1]: anti-oxidative function
- H2O2 % irradiated control [1, 3]: 62%
- H2O2 (AU) Mean [1, 3]: 1152 AU
- H2O2 Protection % [1, 3]: 45%
- H2O2 (AU) (DHR GMFI) ([1]; 100 μM, 180 mJ/cm^2 UVB (2839 mJ/cm^2 UVA), single values): 1046 AU and 1258 AU
- C11-fluor(AU) Mean (1/GMFI) [2]: 6.4E−04 AU
- lipid peroxide % Irradiated control [2]: 99%
- lipid peroxide Protection % [2]: 1%
- C11-fluor(AU) 1/GMFI ([2]; single values): 6.0E−04 AU and 6.9E−04 AU
- C11-fluor(AU) GMFI ([2]; single values): 1671 AU and 1455 AU
- Procollagen I % Control (procollagen I): 118%
- Procollagen I Mean (procollagen I): 1968 ng/mL
- Procollagen I (procollagen I; single values): 1929 ng/mL and 2007 ng/mL
- RLU 1 (NF-κB; 10 μM + 30 ng/ml TNFα): 186120 RLU
- RLU 2 (NF-κB; 10 μM + 30 ng/ml TNFα): 181040 RLU
- RLU 3 (NF-κB; 10 μM + 30 ng/ml TNFα): 182280 RLU
- RLU MEAN (NF-κB; 10 μM + 30 ng/ml TNFα): 183147 RLU
- RLU specific (NF-κB; 10 μM + 30 ng/ml TNFα): 145883 RLU
- % Activation (NF-κB; 10 μM + 30 ng/ml TNFα): 178.4%
- RLU 1 (NF-κB; 25 μM + 30 ng/ml TNFα): 218940 RLU
- RLU 2 (NF-κB; 25 μM + 30 ng/ml TNFα): 216580 RLU
- RLU 3 (NF-κB; 25 μM + 30 ng/ml TNFα): 213320 RLU
- RLU MEAN (NF-κB; 25 μM + 30 ng/ml TNFα): 216280 RLU
- RLU specific (NF-κB; 25 μM + 30 ng/ml TNFα): 179017 RLU
- % Activation (NF-κB; 25 μM + 30 ng/ml TNFα): 218.9%
- RLU 1 (STAT3; 25 μM test substance): 13396 RLU
- RLU 2 (STAT3; 25 μM test substance): 12243 RLU
- RLU 3 (STAT3; 25 μM test substance): 12859 RLU
- RLU specific (STAT3; 25 μM test substance): 10825 RLU
- Mean (STAT3; 25 μM test substance): 12833 RLU
- % Activation (STAT3; 25 μM test substance): 86.48%
- RLU 1 (STAT3; 50 μM test substance): 14303 RLU
- RLU 2 (STAT3; 50 μM test substance): 13124 RLU
- RLU 3 (STAT3; 50 μM test substance): 11985 RLU
- RLU specific (STAT3; 50 μM test substance): 11130 RLU
- Mean (STAT3; 50 μM test substance): 13137 RLU
- % Activation (STAT3; 50 μM test substance): 88.92%
- Measure 1 (HaCaT cells; 25 μM test substance): 756943
- Measure 2 (HaCaT cells; 25 μM test substance): 549324
- Measure 3 (HaCaT cells; 25 μM test substance): 384251
- RFU specific (HaCaT cells; 25 μM test substance): 557192 RFU
- Mean (HaCaT cells; 25 μM test substance): 563506
- % Glucose uptake (HaCaT cells; 25 μM test substance): 64.1%
- Measure 1 (HaCaT cells; 50 μM test substance): 501977
- Measure 2 (HaCaT cells; 50 μM test substance): 642949
- Measure 3 (HaCaT cells; 50 μM test substance): 529620
- RFU specific (HaCaT cells; 50 μM test substance): 551868 RFU
- Mean (HaCaT cells; 50 μM test substance): 558182
- % Glucose uptake (HaCaT cells; 50 μM test substance): 63.5%
